From US12065421B2, “Inhibitors of oplophorus luciferase-derived bioluminescent complexes” (priority 2018, dated 2024) come the findings set out here.

For this assay, the target named is T1, NanoBiT® HiBiT non-luminescent peptide and LgBiT non-luminescent polypeptide (HiBiT/LgBiT bioluminescent complex) (Oplophorus gracilirostris, UniProt Q9GV45, A31E/A60N/A81I/C191F/D135N/E192K/F58L/F95D/G184S/G42A/G62A/G78A/G94A/G98A/H120P/I103V/I117V/I134L/K70R/L176M/L195S/L54V/L73R/L99Q/M102E/N171T/N193K/P142E/Q151K/Q38E/Q45L/T186S/V71I/Y165I).
T1 construct: fused on or other part: N-terminal Met-Val on LgBiT in place of the signal peptide (residues 1-27); The chain is split between residues 184 and 185 into LgBiT and the 11-residue HiBiT peptide (residues 185-195); C-terminal A196 is absent
The assay can be described thus: biochemical.

T1 sequence (Q9GV45 other isoform, or with tags, fused parts or gaps with the stated changes): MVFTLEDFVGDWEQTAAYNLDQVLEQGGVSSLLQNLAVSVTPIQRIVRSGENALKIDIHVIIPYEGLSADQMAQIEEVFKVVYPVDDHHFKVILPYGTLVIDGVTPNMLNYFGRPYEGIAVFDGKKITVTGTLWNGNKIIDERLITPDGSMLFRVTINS

With `Cc1ccc(S(=O)(=O)Nc2ccccc2C(=O)Nc2ccc(-c3ccccc3)cc2)cc1` [JRW-1288, N-([1,1′-biphenyl]-4-yl)-2-((4-methylphenyl)sulfonamido)benzamide], half-maximal inhibition (IC50) was put at 110 nM.
`Cc1ccc(S(=O)(=O)Nc2ccccc2C(=O)Nc2cc3ccccc3s2)cc1` [HL-0005, N-(benzo[b]thiophen-2-yl)-2-((4-methylphenyl)sulfonamido)benzamide] displayed an IC50 of 3.9 nM.
In turn, `COc1ccc(NS(=O)(=O)c2ccc(C)cc2)c(C(=O)Nc2cc3ccccc3s2)c1` [JRW-1167, N-(benzo[b]thiophen-2-yl)-5-methoxy-2-((4-methylphenyl)sulfonamido)benzamide] yielded an IC50 of 20 nM.
In turn, `CCCCc1ccc(NS(=O)(=O)c2ccc(C)cc2)c(C(=O)Nc2cc3ccccc3s2)c1` [JRW-1146, N-(benzo[b]thiophen-2-yl)-5-butyl-2-((4-methylphenyl)sulfonamido)benzamide] returned an IC50 of 630 nM.
With `Cc1ccc(S(=O)(=O)Nc2ccc(F)cc2C(=O)Nc2cc3ccccc3s2)cc1` [JRW-1347, N-(benzo[b]thiophen-2-yl)-5-fluoro-2-((4-methylphenyl)sulfonamido)benzamide] the figure was 0.8 nM; with `Cc1ccc(S(=O)(=O)Nc2ccc(C(F)(F)F)cc2C(=O)Nc2cc3ccccc3s2)cc1` [JRW-1388, N-(benzo[b]thiophen-2-yl)-2-((4-methylphenyl)sulfonamido)-5-(trifluoromethyl)benzamide], 0.58 nM.
On to `Cc1ccc(NC(=O)c2ccccc2NS(=O)(=O)c2cccc(CO)c2)cc1` [JRW-1261, 2-((3-(hydroxymethyl)phenyl)sulfonamido)-N-(p-tolyl)benzamide], for which the IC50 stood at 170 nM.
`COC(=O)CCc1ccc(S(=O)(=O)Nc2ccccc2C(=O)Nc2cc3ccccc3s2)cc1` [HL-0040, methyl 3-(4-(N-(2-(benzo[b]thiophen-2-ylcarbamoyl)phenyl)sulfamoyl)phenyl)propanoate] came in with an IC50 of 430 nM.
With `Cc1ccc(S(=O)(=O)Nc2ccccc2C(=O)Nc2ccccc2C#N)cc1` [JRW-1008, N-(2-cyanophenyl)-2-((4-methylphenyl)sulfonamido)benzamide], the half-inhibitory concentration (IC50) turned out to be 240 nM.
`Cc1ccc(S(=O)(=O)Nc2ccccc2C(=O)Nc2cccc(-c3ccccc3)c2)cc1` [JRW-1297, N-([1,1′-biphenyl]-3-yl)-2-((4-methylphenyl)sulfonamido)benzamide]: the IC50 is 100 nM.
Next, `COC(=O)[C@H]1CC[C@H](NC(=O)c2ccccc2NS(=O)(=O)c2ccc(C)cc2)CC1` [HL-0009, methyl trans-4-(2-((4-methylphenyl)sulfonamido)benzamido)cyclohexane-1-carboxylate]: 16000 nM.
On to `Cc1ccc(S(=O)(=O)Nc2ccccc2C(=O)Nc2ccc3c(c2)CCCC3)cc1` [HL-0008, 2-((4-methylphenyl)sulfonamido)-N-(5,6,7,8-tetrahydronaphthalen-2-yl)benzamide], for which the IC50 was determined as 24 nM.
Take `Cc1ccc(S(=O)(=O)Nc2ccc(C#N)cc2C(=O)Nc2cc3ccccc3s2)cc1` [HL-0071, N-(benzo[b]thiophen-2-yl)-5-cyano-2-((4-methylphenyl)sulfonamido)benzamide]: the IC50 was 43 nM.
With `COC(=O)c1cccc(S(=O)(=O)Nc2ccccc2C(=O)Nc2ccc(C)cc2)c1` [JRW-1250, methyl 3-(N-(2-(p-tolylcarbamoyl)phenyl)sulfamoyl)benzoate], the midpoint of inhibition, the IC50, lay at 540 nM.
The compound `COc1ccc(NC(=O)c2ccccc2NS(=O)(=O)c2ccc(C)cc2)cc1` [JRW-1300, N-(4-methoxyphenyl)-2-((4-methylphenyl)sulfonamido)benzamide] showed an IC50 of 43 nM.
`CCCc1ccccc1NC(=O)c1ccccc1NS(=O)(=O)c1ccc(C)cc1` [HL-0059, 2-((4-methylphenyl)sulfonamido)-N-(2-propylphenyl)benzamide] showed an IC50 of 190 nM.
`Cc1ccc(S(=O)(=O)Nc2ccccc2C(=O)Nc2sc3c(c2C#N)CCCC3)cc1` [JRW-1004, N-(3-cyano-4,5,6,7-tetrahydrobenzo[b]thiophen-2-yl)-2-((4-methylphenyl)sulfonamido)benzamide]: it took 30 nM to reach half-maximal inhibition (IC50).
Turning to `CCCCc1ccc(NC(=O)c2ccccc2NS(=O)(=O)c2ccc(C)cc2)cc1` [JRW-1076, N-(4-butylphenyl)-2-((4-methylphenyl)sulfonamido)benzamide], half-maximal inhibition (IC50) required 26 nM.
Next, `COc1cccc(S(=O)(=O)Nc2ccccc2C(=O)Nc2ccc(C)cc2)c1` [JRW-1205, 2-((3-methoxyphenyl)sulfonamido)-N-(p-tolyl)benzamide]: 29 nM; `Cc1ccc(S(=O)(=O)Nc2ccccc2C(=O)Nc2ccc(CCCCBr)cc2)cc1` [JRW-1152, N-(4-(4-bromobutyl)phenyl)-2-((4-methylphenyl)sulfonamido)benzamide]: 120 nM; `COc1ccc(C(=O)Nc2cc3ccccc3s2)c(NS(=O)(=O)c2ccc(C)cc2)c1` [JRW-1203, N-(benzo[b]thiophen-2-yl)-4-methoxy-2-((4-methylphenyl)sulfonamido)benzamide]: 100 nM.
Next, `COc1ccccc1NC(=O)c1ccccc1NS(=O)(=O)c1ccc(C)cc1` [JRW-1292, N-(2-methoxyphenyl)-2-((4-methylphenyl)sulfonamido)benzamide]: 590 nM; `Cc1ccc(NC(=O)c2ccccc2NS(=O)(=O)c2cccc(N)c2)cc1` [JRW-1255, 2-((3-aminophenyl)sulfonamido)-N-(p-tolyl)benzamide]: 60 nM.
Next, `O=C(Nc1cc2ccccc2s1)c1ccccc1NS(=O)(=O)c1ccc(CCCO)cc1` [HL-0062, N-(benzo[b]thiophen-2-yl)-2-((4-(3-hydroxypropyl)phenyl)sulfonamido)benzamide]: 1200 nM; `Cc1cccc(S(=O)(=O)Nc2ccccc2C(=O)Nc2cc3ccccc3s2)c1` [HL-0041, N-(benzo[b]thiophen-2-yl)-2-((3-methylphenyl)sulfonamido)benzamide]: 13 nM.
With `Cc1ccc(S(=O)(=O)Nc2ccccc2C(=O)Nc2ccc3ccccc3c2)cc1` [HL-0007, 2-((4-methylphenyl)sulfonamido)-N-(naphthalen-2-yl)benzamide], the IC50 is 14 nM.
Compound `Cc1ccc(NC(=O)c2ccccc2NS(=O)(=O)c2cccc(CCCO)c2)cc1` [JRW-1275, 2-((3-(3-hydroxypropyl)phenyl)sulfonamido)-N-(p-tolyl)benzamide] yielded an IC50 of 340 nM.
In turn, `Cc1ccc(NC(=O)c2ccccc2NS(=O)(=O)c2ccc(C(F)(F)F)cc2)cc1` [JRW-1284, N-(p-tolyl)-2-((4-(trifluoromethyl)phenyl)sulfonamido)benzamide] displayed an IC50 of 710 nM.
As to `CCCCCCc1ccc(NC(=O)c2ccccc2NS(=O)(=O)c2ccc(C)cc2)cc1` [JRW-1090, N-(4-hexylphenyl)-2-((4-methylphenyl)sulfonamido)benzamide], the IC50 worked out at 1100 nM.
The compound `Cc1ccc(NC(=O)c2ccccc2NS(=O)(=O)c2cccc(OC(F)(F)F)c2)cc1` [JRW-1328, N-(p-tolyl)-2-((3-(trifluoromethoxy)phenyl)sulfonamido)benzamide] showed an IC50 of 1100 nM.
The compound `Cc1ccc(S(=O)(=O)Nc2ccc(C)cc2C(=O)Nc2cc3ccccc3s2)cc1` [HL-0061, N-(benzo[b]thiophen-2-yl)-5-methyl-2-((4-methylphenyl)sulfonamido)benzamide] returned an IC50 of 29 nM.

What is called IC50 is the point on the concentration scale where inhibition reaches its midpoint. A higher IC50 goes with weaker potency in that assay.
